These are literature values, as cited in patent US8163058B2 (Whitehurst Associates, Inc., priority 2009, dated 2012).

The conditions of this series: prior art description.

As to `CCCCNP(N)(N)=S` [NBPT, N-(n-butyl) thiophosphoric triamide], the Hydrolytic stability entry is listed as “undergoes hydrolysis” and the Thermal stability entry was “thermally unstable”.
